Series [1] addresses T1, α1-GABAA receptor (Homo sapiens, UniProt P14867+P18507).
T1 construct: expressed in transfected cells
Nature of the series: Whole-cell patch-clamp electrophysiological test of positive allosteric modulation, α1-GABAAR-HEK293 cells. The format is cell-based. The conditions noted are these: read-out: Positive allosteric modulation activity on α1-GABAAR. The text has this: (§1) An α subunit, a β subunit, and a γ subunit are essential for the formation of a complete functional GABAA receptor. […] The α1-GABAAR-HEK293 cell model simultaneously expressed the α1 subunit (protein sequence available in GenBank with an accession No.: NM_000806.5), the β3 subunit (protein sequence available in GenBank with an accession No.: NM_000814.5), and the γ2 subunit (protein sequence available in GenBank with an accession No.: NM_000816.3). The α2-GABAAR-HEK293 cell model simultaneously expressed the α2 subunit (protein sequence available in GenBank with an accession No.: NM_000807.4), the β3 subunit (protein sequence available in GenBank with an accession No.: NM_000814.5), and the γ2 subunit (protein sequence available in GenBank with an accession No.: NM_000816.3).
(§2) The above cell lines were subcultured. The α2-GABAAR-HEK293 cells were expanded for assay of the benzodiazepine (BZD) site affinity of compounds for GABAA receptors.
(§3) The positive regulation activity of the test drugs on the α1-GABAA receptor and the α2-GABAA receptor was detected by the electrophysiological method. The specific method was as follows:
(§4) Compound concentration setting: the final concentration of the compounds used for screening was 100 nM. […] The components of the extracellular solution (ECS) for electrophysiology were as follows: 150 mM NaCl, 5 mM KCl, 2.5 mM CaCl2, 1 mM MgCl2, 10 mM HEPES, and 10 mM glucose (pH 7.4); the formulation of the intracellular solution (ICS) of electrodes for electrophysiology was as follows: 140 mM CsCl, 11 mM EGTA, 10 mM HEPES, 2 mM CaCl2, 1 mM MgCl2, 4 mM MgATP, and 2 mM TEA (pH 7.3). GABA (γ-aminobutyric acid) powder was prepared into a mother liquor with pure water, which was then diluted in ECS; the compounds were first prepared into 4 mM mother liquors with dimethyl sulfoxide and then gradually diluted to corresponding concentrations in GABA-ECS. The solutions were all prepared freshly prior to the electrophysiological test.
(§5) Electrophysiological signal acquisition was performed using an EPC 10 amplifier and PatchMaster software (HEKA) or an Axon700B amplifier and Clampex software (AXON).
(§6) The recording electrode was made by pulling borosilicate glass, with an electrode resistance of 4-6 MΩ. Extracellular administration was performed using the ALA-VC-8PG™ system. A single, independently growing cell was selected. After the glass electrode formed a good seal with the cell, the membrane was ruptured to form the whole-cell configuration. The cell membrane potential was clamped at −60 mV and recorded in Gap-free mode. During the test, the extracellular solution was first applied extracellularly for about 20 s. After the baseline (Iprebaseline) stabilized, the extracellular solution was switched to GABA-ECS. At this time, the current caused by GABA (Igaba) could be detected. After about 10-20 s, when the current stabilized, the extracellular solution was switched to a mixed solution of the compound and GABA-ECS. At this point, the current caused by both the compound and GABA (Itreatment) could be detected. Finally, the solution was switched to the extracellular solution, and the test was terminated after recording for 20-40 s.
(§7) The current values at each stage were calculated based on the average value of the current after stabilization under the corresponding conditions. We defined the control current as Igaba−Iprebaseline, and the current after compound treatment as Itreatment−Iprebaseline. The allosteric modulation activity of the compounds was expressed as a percentage, calculated by the following formula: functional activity=[(Itreatment−Igaba)/(Igaba−Iprebaseline)]×100%.
A general note: Patch clamp records ionic current or voltage across a cell membrane.

Series [2] concerns the target T2, α2-GABAA receptor (Homo sapiens, UniProt P18507+P47869).
T2 construct: expressed in transfected cells
The series can be described thus: Whole-cell patch-clamp electrophysiological test of positive allosteric modulation, α2-GABAAR-HEK293 cells. It is filed as cell-based. The conditions noted are these: read-out: Positive allosteric modulation activity on α2-GABAAR.
Excerpt: as §1, §2, §3, §4, §5, §6, §7

For series [3], the system named is Chinese hamster ovary cells (CHO-WBL cells). The series can be described thus: In vitro micronucleus assay. It is filed as cell-based. The conditions noted are these: 3 h with S9, 3 h without S9, 24 h without S9, overall judgment positive/negative. From the text:
The cell stock solution was stored in liquid nitrogen. The karyotype of each batch of cell stock solution was identified, and tests confirmed that it was free from mycoplasma contamination. The number of passages after cell cloning will not exceed 15.
Immediately before use, the S9 homogenate was thawed, and the components of the S9 metabolic activation system were mixed in the proportions shown in Table 2 below.
Dose exploration experiment: In the dose exploration experiment, 8 administration concentrations were established in each administration treatment series. For each concentration of the test substance, 1 well of cells was set up.

Series [4] concerns the target T2, α2-GABAA receptor. Nature of the series: Radioligand (3H-flunitrazepam) competitive binding assay at the BZD site.
Excerpt: as §1, §2
The affinity of the compounds for the α2-GABAA receptor was determined by competing with ^3H-flunitrazepam (isotope ^3H-labelled flunitrazepam) for binding to the BZD site on the membrane proteins of HEK293 cells stably expressing the human α2-GABAA receptor.
Membrane preparation: The cells were suspended in 50 mM Tris-HCl buffer (pH=7.4), homogenized 10 times (20 s for each time) with a homogenizer on ice, and then centrifuged at 4° C. at 1000 g for 10 min. The supernatant was taken. The above steps were repeated. The supernatant was centrifuged (33800 g; Thermo, rotor: A27-8×50) at 4° C. for 60 min. The pellet was resuspended in Tris buffer (50 mM Tris-HCl, 10 mM MgCl2, 0.5 mM EDTA, and 10% glycerol). The protein content was determined (BCA (bicinchoninic acid) protein quantification assay based on the copper ion reduction method, with a BCA kit purchased from Pierce (Annoron (Beijing) Biotechnology Co., Ltd.)), and 1 mL aliquots were prepared and stored at −80° C.
Radioligand competitive binding assay: This assay was performed in a 200 μL system (96-well plate) containing 100 μL of cell membranes. The concentration of ^3H-flunitrazepam was 1 nM, and the concentrations of the test compounds were in the range of […]. Flumazenil was used as a control. To each low control (LC) well was added 1 μL of 2 mM flumazenil (the final concentration of 10 μM), and to each high control (HC) well was added 1 μL of dimethyl sulfoxide. The final concentration of the target membrane protein was […]. All sample stock solutions of test compounds were 10 mM solutions in dimethyl sulfoxide. All the samples were diluted to a concentration of 0.2 mM with dimethyl sulfoxide, and then subjected to a 4-fold serial dilution to give a total of 8 working concentration gradients. The 96-well plate was sealed with a plate sealing membrane and then incubated on a shaker at room temperature for 1 h. Meanwhile, a GF/C filter plate was soaked in a plate soaking buffer (0.3% PEI (polyethyleneimine, purchased from: Sigma-Aldrich, model: P314), stored at 4° C.) for at least 0.5 h. After the binding incubation was completed, the cells were harvested onto the GF/C filter plate using a cell harvester and washed 4 times with a washing buffer (50 mM Tris-HCl, pH 7.4, stored at 4° C.). After drying in an oven at 50° C. for 1 h, the dried GF/C filter plate was bottom-sealed. The residual radioactivity on the filter membrane was detected by liquid scintillation counting. Scintillation fluid was added at 50 µL/well, and then the plate was sealed. Readings were taken using Microbeta^2 (microplate counter, purchased from: PerkinElmer, model: CNLL0153). The inhibitory activity of the test samples on the binding of ^3H-flunitrazepam to the GABAA receptor membrane protein was calculated.

Setting [5] is: membranes of HEK293 cells stably expressing human α2-GABAA receptor (α2β3γ2), 1 nM 3H-flunitrazepam, Ki calculated from IC50, read-out: α2 Ki.
The mark [6] stands for this setting: compound 100 nM, GABA about EC2-4, normalised to positive compound CVL-865 (=100%), negative value = reverse allosteric modulation.
Setting [7] is: compound 100 nM, GABA 0.10-0.11 M [sic] (about EC70.8), normalised to positive compound CVL-865 (=100%).

Where two headings read alike, the source gives them in different places.

As for `CCn1cnc2c(-c3ccc(F)c(-c4ccc(S(=O)(=O)CC)cc4OC)c3)cnnc21` [CVL-865, reference compound], the activation at 0.1 µM in series [1] and in series [2] was 100% each time. Besides, the “Results of in vitro micronucleus assay” value in series [3] is given as “Positive”.

Take `CCn1cnc2c(-c3ccc(F)c(-c4cn5cc(C6CC6)nc5cc4OC)c3)cnnc21` [Example 37, 4-(3-(2-Cyclopropyl-7-methoxyimidazo[1,2-a]pyridin-6-yl)-4-fluorophenyl)-7-ethyl-7H-imidazo[4,5-c]pyridazine]: the Ki in series [4] came to 6.39 nM. The activation at 0.1 µM amounted to 74% in series [1] and 79% in series [2]. For the same compound, in series [3], the “Results of in vitro micronucleus assay” value is on record as “Negative”.

On to `CCn1cnc2c(-c3ccc(F)c(-c4cn5cc(C(F)F)nc5cc4OC)c3)cnnc21` [Example 41, 4-(3-(2-(Difluoromethyl)-7-methoxyimidazo[1,2-a]pyridin-6-yl)-4-fluorophenyl)-7-ethyl-7H-imidazo[4,5-c]pyridazine], for which the Ki in series [4] (setting [5]) was 0.11 nM. Also, the values for the activation at 0.1 µM in series [1] (setting [6]) and in series [2] (setting [7]) were 59% and 178%, respectively.

For the compound `CCn1cnc2c(-c3ccc(F)c(-c4c(OC)ccc5nccn45)c3)cnnc21` [Example 49, 7-Ethyl-4-(4-fluoro-3-(6-methoxyimidazo[1,2-a]pyridin-5-yl)phenyl)-7H-imidazo[4,5-c]pyridazine], the Ki in series [4] (setting [5]) is 16.5 nM. In addition, the activation at 0.1 µM in series [1] (setting [6]) was determined as 44%; in series [2] (setting [7]), 82%.

The compound `CCn1cnc2c(-c3ccc(F)c(-c4cn5cc(C)nc5cc4OC)c3)cnnc21` [Example 50, 7-Ethyl-4-(4-fluoro-3-(7-methoxy-2-methylimidazo[1,2-a]pyridin-6-yl)phenyl)-7H-imidazo[4,5-c]pyridazine] came in with a Ki in series [4] of 9.89 nM. In addition, the activation at 0.1 µM in series [1] was determined as 29%; in series [2] it was 103%.

`CCn1cnc2c(-c3ccc(F)c(-c4cn5ccnc5cc4OC)c3)cnnc21` [Example 52, 7-Ethyl-4-(4-fluoro-3-(7-methoxyimidazo[1,2-a]pyridin-6-yl)phenyl)-7H-imidazo[4,5-c]pyridazine]: the Ki in series [4] (setting [5]) was 8.07 nM. Besides, the activation at 0.1 µM in series [1] (setting [6]) was 19%; in series [2] (setting [7]) it was 99%.

`CCn1cnc2c(-c3ccc(F)c(-c4ccn5c(C)cnc5c4COC)c3)cnnc21` [Example 54, 7-Ethyl-4-(4-fluoro-3-(8-(methoxymethyl)-3-methylimidazo[1,2-a]pyridin-7-yl)phenyl)-7H-imidazo[4,5-c]pyridazine]: the Ki in series [4] (setting [5]) was 2.96 nM. Moreover, the activation at 0.1 µM came out at 47% in series [1] (setting [6]) and 100% in series [2] (setting [7]).

Take `CCn1cnc2c(-c3ccc(F)c(-c4ccn5c(C)nnc5c4COC)c3)cnnc21` [Example 58, 7-Ethyl-4-(4-fluoro-3-(8-(methoxymethyl)-3-methyl-[1,2,4]triazolo[4,3-a]pyridin-7-yl)phenyl)-7H-imidazo[4,5-c]pyridazine]: the Ki in series [4] (setting [5]) was 11.4 nM. The activation at 0.1 µM stood at 40% in series [1] (setting [6]) and 123% in series [2] (setting [7]).

A word on the Ki: it is a dissociation constant, usually derived from enzyme kinetics or from competition with a known ligand.

The values above are taken from patent publication US20250163078A1, “IMIDAZOPYRIDAZINE DERIVATIVE, AND PREPARATION METHOD THEREFOR, PHARMACEUTICAL COMPOSITION THEREOF AND USE THEREOF” (SHANGHAI SIMR BIOTECHNOLOGY CO., LTD., priority 2022, published 2025).
